Laboratory results from patent EP0562479A1, “1-Phenyl-5-heterocyclic-1H-1, 2,4-triazole-3-carboxamide derivates, process for preparation of the same, and fungicidal composition comprising the same” (KUREHA CHEMICAL INDUSTRY CO., LTD., priority 1992, dated 1993).

Tested on: Botrytis cinerea
Assay: Test for controlling effect against cucumber gray mold
Assay type: in vivo, Botrytis cinerea on cucumber
Details: wettable powder sprayed 5 ml per pot, lesion areas three days after inoculation
Method: Test Example 1 〈Test for controlling effect against cucumber gray mold (Botrytis cinerea on cucumber)〉 A wettable powder similar to that prepared in Formulation Example 2, diluted with water to a prescribed concentration, was sprayed onto the cucumber plants of the first leaf stage (variety: […], one plant per pot) growing in an unglazed pot (diameter: 10 cm), in an amount of 5 ml per pot. After drying the sprayed leaves in the air, a circular cutting (diameter: 4 mm) of agar containing Botrytis cinerea, which had been cultured in advance in a potato-sucrose agar medium at 20°C for 3 days, was attached directly to the center part of the leaves, and the pots maintained at 20-22°C under high humidity conditions. Three days after the inoculation, lesion areas of the disease were examined to calculate the inhibition rate according to the following equation. [formula]

Row | SMILES | Inhibition rate (%) at concentration of 500 ppm Cucumber gray mold [%]
1 | CCCCOC(c1cccc(-n2nc(C(N)=O)nc2-c2sccc2C)c1)C(C)C (centres unmarked) [Compound 16, 1-[3-[(1-butoxy-2-methyl)propyl]phenyl]-5-(3-methylthiophen-2-yl)-1H-1,2,4-triazole-3-carboxamide] | 94
2 | CCCCOC(c1cccc(-n2nc(C(N)=O)nc2-c2cccc(C)n2)c1)C(C)C (centres unmarked) [Compound 7, 1-[3-[(1-butoxy-2-methyl)propyl]phenyl]-5-(6-methylpyridin-2-yl)-1H-1,2,4-triazole-3-carboxamide] | 95
